Measured values published in patent EP4692090A1 (Shanghai Fosun Pharmaceutical (Group) Co., Ltd., priority 2023, dated 2024).
Like-named read-outs stand apart in the source and are kept apart here.

Columns and labels:
ATR kinase = target: T1, ATR kinase (Homo sapiens, UniProt Q13535); experiment: Inhibitory effect on ATR kinase activity (Caliper mobility shift, FAM-labeled RAD17 peptide substrate); assay type: biochemical
T1 construct: purchased Eurofins 14-953
Method: Test Example 1: Inhibitory effect of the compounds of the present disclosure on ATR kinase activity
Test compounds to be tested were serially diluted with DMSO (maximum concentration 1 µM, 10 concentrations with 3-fold serial dilution) and added to the wells of a 384-well reaction plate (Corning, #4512). 1 nM ATR kinase (Eurofins, #14-953), 5 mM substrate (FAM-labeled RAD17 peptide, FAM-ASELPASQPQPFSAKKK), 5 mM ATP and the compounds with corresponding concentrations reacted in a kinase reaction solution (50 mM HEPES, pH 7.5; 0.0015% Brij-35; 10 mM MnCl2, total volume of 20 µL) at 28°C for 3 hours. The reaction was terminated by adding 30 µL of stop solution (100 mM HEPES, pH 7.5; 0.015% Brij-35; 0.2% Coating Reagent #3, PerkinElmer; 50 mM EDTA). The reaction plate was placed on a Caliper instrument (PerkinElmer) for testing. The relative inhibitory activity of each compound concentration group was calculated using the following formula: % Inhibition = (Conversion rate of the blank control group without compound added - Conversion rate of the test compound group) / (Conversion rate of the blank control group - […]). The IC50 values were calculated using GraphPad analysis and fitted. […] Table 1. Inhibitory effect (IC50) of compounds on ATR kinase activity.

LoVo cells = experiment: LoVo cell proliferation assay (CellTiter-Glo); assay type: cell-based; settings: Homo sapiens, LoVo, 120 h, maximum concentration 10 µM, 9 concentrations
Procedure, shortened: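 LoVo cells, 2,000 per well, were treated after overnight attachment with 9-point 3-fold dilutions from 10 µM for 5 days at 37 °C. Viability was read by CellTiter-Glo luminescence. Inhibition % was taken relative to DMSO control, and IC50 came from the concentration–inhibition curve.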

[1] = 1 nM ATR kinase (Eurofins), 28°C for 3 hours, maximum concentration 1 µM, 10 concentrations, read-out: ATR kinase IC50
[2] = LoVo cells, 2,000 cells per well, 5 days incubation, CellTiter-Glo, read-out: LoVo IC50
[3] = read-out: ATR kinase IC50, 1 nM ATR kinase (Eurofins), 28°C for 3 hours, maximum concentration 1 µM, 10 concentrations
[4] = read-out: LoVo IC50 (nM), LoVo cells, 2,000 cells per well, 5 days incubation, CellTiter-Glo

T1 sequence (Q13535 whole entry): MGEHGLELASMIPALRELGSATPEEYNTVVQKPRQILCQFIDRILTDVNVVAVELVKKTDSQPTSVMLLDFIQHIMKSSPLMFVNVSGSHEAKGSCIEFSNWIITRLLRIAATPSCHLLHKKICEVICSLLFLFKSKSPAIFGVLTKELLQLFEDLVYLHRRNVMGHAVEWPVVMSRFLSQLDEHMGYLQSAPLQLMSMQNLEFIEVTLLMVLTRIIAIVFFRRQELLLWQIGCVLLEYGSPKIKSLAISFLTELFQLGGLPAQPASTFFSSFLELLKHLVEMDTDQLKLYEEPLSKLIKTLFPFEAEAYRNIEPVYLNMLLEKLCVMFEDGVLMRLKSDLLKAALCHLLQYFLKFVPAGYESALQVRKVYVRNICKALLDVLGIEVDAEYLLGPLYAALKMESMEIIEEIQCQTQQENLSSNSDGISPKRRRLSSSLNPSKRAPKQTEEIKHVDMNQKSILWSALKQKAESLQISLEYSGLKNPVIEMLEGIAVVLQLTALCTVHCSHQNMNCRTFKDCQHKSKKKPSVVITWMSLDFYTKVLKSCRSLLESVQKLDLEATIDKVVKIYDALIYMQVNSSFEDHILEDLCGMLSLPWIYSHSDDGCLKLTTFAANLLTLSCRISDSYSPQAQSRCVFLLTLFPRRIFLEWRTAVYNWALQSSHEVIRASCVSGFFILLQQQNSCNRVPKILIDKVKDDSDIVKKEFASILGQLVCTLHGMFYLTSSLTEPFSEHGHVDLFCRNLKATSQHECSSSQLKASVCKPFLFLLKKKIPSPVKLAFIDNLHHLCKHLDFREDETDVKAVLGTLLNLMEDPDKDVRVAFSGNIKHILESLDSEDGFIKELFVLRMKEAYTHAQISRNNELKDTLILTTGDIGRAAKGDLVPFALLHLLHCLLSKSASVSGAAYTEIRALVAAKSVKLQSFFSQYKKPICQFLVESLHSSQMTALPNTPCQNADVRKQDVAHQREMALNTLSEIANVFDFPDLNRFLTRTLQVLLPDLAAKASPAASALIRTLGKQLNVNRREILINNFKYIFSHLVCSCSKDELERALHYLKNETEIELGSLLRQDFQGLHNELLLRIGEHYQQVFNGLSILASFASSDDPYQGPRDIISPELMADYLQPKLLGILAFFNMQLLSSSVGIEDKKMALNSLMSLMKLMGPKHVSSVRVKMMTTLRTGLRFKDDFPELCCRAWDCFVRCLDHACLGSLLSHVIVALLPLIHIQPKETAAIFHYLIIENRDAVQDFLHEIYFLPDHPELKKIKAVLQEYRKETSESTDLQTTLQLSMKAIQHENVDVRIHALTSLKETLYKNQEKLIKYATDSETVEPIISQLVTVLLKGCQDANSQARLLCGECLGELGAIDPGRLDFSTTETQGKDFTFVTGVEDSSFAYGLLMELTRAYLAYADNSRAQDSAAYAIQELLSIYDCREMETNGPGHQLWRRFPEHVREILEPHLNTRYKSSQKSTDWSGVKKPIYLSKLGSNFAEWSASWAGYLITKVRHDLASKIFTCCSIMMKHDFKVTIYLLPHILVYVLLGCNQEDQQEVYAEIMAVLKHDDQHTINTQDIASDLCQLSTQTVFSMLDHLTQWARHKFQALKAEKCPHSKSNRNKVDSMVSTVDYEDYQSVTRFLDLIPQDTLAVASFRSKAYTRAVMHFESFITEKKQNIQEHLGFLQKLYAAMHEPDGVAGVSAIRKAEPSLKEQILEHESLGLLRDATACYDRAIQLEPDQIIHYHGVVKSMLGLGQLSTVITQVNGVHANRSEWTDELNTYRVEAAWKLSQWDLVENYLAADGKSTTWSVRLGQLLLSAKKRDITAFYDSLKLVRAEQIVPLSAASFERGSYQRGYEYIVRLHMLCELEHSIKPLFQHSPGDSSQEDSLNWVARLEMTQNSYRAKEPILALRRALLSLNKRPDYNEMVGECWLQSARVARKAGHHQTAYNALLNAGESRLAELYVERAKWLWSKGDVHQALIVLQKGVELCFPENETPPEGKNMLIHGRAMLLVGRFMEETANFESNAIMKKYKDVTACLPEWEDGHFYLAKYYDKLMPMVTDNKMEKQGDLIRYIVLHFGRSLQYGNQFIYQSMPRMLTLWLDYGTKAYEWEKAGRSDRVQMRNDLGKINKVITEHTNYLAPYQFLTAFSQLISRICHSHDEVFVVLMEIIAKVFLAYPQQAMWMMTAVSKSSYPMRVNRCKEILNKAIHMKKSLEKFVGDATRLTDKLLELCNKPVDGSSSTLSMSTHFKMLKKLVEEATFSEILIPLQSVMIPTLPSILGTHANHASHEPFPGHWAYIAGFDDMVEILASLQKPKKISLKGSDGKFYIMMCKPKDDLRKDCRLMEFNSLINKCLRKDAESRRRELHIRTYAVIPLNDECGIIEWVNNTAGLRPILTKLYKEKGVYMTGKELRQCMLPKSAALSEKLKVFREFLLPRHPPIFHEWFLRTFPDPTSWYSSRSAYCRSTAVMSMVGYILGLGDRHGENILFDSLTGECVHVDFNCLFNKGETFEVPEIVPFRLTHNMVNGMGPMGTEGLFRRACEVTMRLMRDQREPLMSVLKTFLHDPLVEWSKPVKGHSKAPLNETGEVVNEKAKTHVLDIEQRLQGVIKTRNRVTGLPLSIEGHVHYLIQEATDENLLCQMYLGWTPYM
T1 sequence (Q8WXE1 whole entry partner): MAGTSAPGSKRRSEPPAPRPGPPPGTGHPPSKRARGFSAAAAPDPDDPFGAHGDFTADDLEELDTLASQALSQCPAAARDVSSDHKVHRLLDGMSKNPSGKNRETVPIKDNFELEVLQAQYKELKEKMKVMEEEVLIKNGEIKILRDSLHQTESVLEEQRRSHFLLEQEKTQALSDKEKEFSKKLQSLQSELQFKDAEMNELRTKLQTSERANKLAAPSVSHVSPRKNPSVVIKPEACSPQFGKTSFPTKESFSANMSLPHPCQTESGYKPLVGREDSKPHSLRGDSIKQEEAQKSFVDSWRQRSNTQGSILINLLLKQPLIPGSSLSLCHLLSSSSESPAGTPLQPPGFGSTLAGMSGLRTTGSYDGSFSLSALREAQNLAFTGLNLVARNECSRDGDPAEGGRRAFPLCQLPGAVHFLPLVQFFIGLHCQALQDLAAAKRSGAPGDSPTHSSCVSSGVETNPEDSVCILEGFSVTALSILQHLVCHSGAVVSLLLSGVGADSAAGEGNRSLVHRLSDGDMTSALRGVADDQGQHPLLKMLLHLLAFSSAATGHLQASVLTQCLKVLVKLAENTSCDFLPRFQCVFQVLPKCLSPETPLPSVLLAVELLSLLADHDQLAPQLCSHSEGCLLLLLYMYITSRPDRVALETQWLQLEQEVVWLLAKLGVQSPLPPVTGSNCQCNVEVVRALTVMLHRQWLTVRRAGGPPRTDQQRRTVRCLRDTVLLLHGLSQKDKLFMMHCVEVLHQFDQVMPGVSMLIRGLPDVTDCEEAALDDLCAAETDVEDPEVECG

| SMILES | IC50 (ATR kinase; [1]) | IC50 (LoVo cells; [2]) | IC50 (ATR kinase; [3]) | IC50 (LoVo cells; [4]) |
| --- | --- | --- | --- | --- |
| C[C@@H]1COCCN1c1cc2c3c(nn(-c4cc[nH]n4)c3n1)CCN(C1CCOCC1)C2 [Compound 3, (R)-4-(2-(1H-pyrazol-3-yl)-7-(tetrahydro-2H-pyran-4-yl)-6,7,8,9-tetrahydro-2H-1,2,3,7-tetraazabenzo[cd]azulen-4-yl)-3-methylmorpholine] | 10 to 100 nM | 100 to 1000 nM |  |  |
| C[C@@H]1COCCN1c1cc2c3c(nn(-c4cc[nH]n4)c3n1)CCN(C1CCOC1)C2 (stereo partly drawn) [Compound 4, (3R)-4-(2-(1H-pyrazol-3-yl)-7-(tetrahydrofuran-3-yl)-6,7,8,9-tetrahydro-2H-1,2,3,7-tetraazabenzo[cd]azulen-4-yl)-3-methylmorpholine] | 10 to 100 nM | 100 to 1000 nM |  |  |
| CC(=O)N1CCc2nn(-c3cc[nH]n3)c3nc(N4CCOC[C@H]4C)cc(c23)C1 [Compound 5] | 10 to 100 nM | 100 to 1000 nM |  |  |
| C[C@@H]1COCCN1c1cc2c3c(nn(-c4cc[nH]n4)c3n1)CCN(C1CC3CCC(C1)O3)C2 (stereo partly drawn) [Compound 6, (3R)-4-(7-(8-oxabicyclo[3.2.1]octan-3-yl)-2-(1H-pyrazol-3-yl)-6,7,8,9-tetrahydro-2H-1,2,3,7-tetraazabenzo[cd]azulen-4-yl)-3-methylmorpholine] | 100 to 1000 nM | 100 to 1000 nM |  |  |
| C[C@@H]1COCCN1c1cc2c3c(nn(-c4cc[nH]n4)c3n1)CCN(C1CC(F)(F)C1)C2 [Compound 7, (R)-4-(7-(3,3-difluorocyclobutyl)-2-(1H-pyrazol-3-yl)-6,7,8,9-tetrahydro-2H-1,2,3,7-tetraazabenzo[cd]azulen-4-yl)-3-methylmorpholine] | 10 to 100 nM | 100 to 1000 nM |  |  |
| C[C@@H]1COCCN1c1cc2c3c(nn(-c4cc[nH]n4)c3n1)CCN(C1COC1)C2 [Compound 8, (R)-3-Methyl-4-(7-(oxetan-3-yl)-2-(1H-pyrazol-3-yl)-6,7,8,9-tetrahydro-2H-1,2,3,7-tetraazabenzo[cd]azulen-4-yl)morpholine] | 10 to 100 nM | 100 to 1000 nM |  |  |
| C[C@@H]1COCCN1c1cc2c3c(nn(-c4cc[nH]n4)c3n1)CCN(C(=O)C1CC(F)(F)C1)C2 [Compound 9, (R)-(3,3-difluorocyclobutyl)(4-(3-methylmorpholino)-2-(1H-pyrazol-3-yl)-2,6,8,9-tetrahydro-7H-1,2,3,7-tetraazabenzo[cd]azulene-7-yl)methanone] | 10 to 100 nM | > 1000 nM |  |  |
| C[C@@H]1COCCN1c1cc2c3c(nn(-c4cc[nH]n4)c3n1)CCN(C(=O)CC(F)(F)F)C2 [Compound 10, (R)-3,3,3-trifluoro-1-(4-(3-methylmorpholino)-2-(1H-pyrazol-3-yl)-2,6,8,9-tetrahydro-7H-1,2,3,7-tetraazabenzo[cd]azulen-7-yl)propan-1-one] | 10 to 100 nM | > 1000 nM |  |  |
| C[C@@H]1COCCN1c1cc2c3c(nn(-c4cc[nH]n4)c3n1)CCN(C1CC3(CC3)C1)C2 [Compound 11] | 10 to 100 nM | 100 to 1000 nM |  |  |
| CC1COCC1N1CCc2nn(-c3cc[nH]n3)c3nc(N4CCOC[C@H]4C)cc(c23)C1 (stereo partly drawn) [Compound 12, (3R)-3-methyl-4-(7-(4-methyltetrahydrofuran-3-yl)-2-(1H-pyrazol-3-yl)-6,7,8,9-tetrahydro-2H-1 ,2,3,7-tetraazabenzo[cd]azulen-4-yl)morpholine] | 10 to 100 nM | 100 to 1000 nM |  |  |
| C[C@@H]1COCCN1c1cc2c3c(nn(-c4cc[nH]n4)c3n1)CCN(CC(F)(F)F)C2 [Compound 14, (R)-4-(2-(1H-pyrazol-3-yl)-7-(2,2,2-trifluoroethyl)-6,7,8,9-tetrahydro-2H-1,2,3,7-tetraazabenzo[cd]azulen-4-yl)-3-methylmorpholine] | 10 to 100 nM | 100 to 1000 nM |  |  |
| CC1CC(C(=O)N2CCc3nn(-c4cc[nH]n4)c4nc(N5CCOC[C@H]5C)cc(c34)C2)C1 (stereo partly drawn) [Compound 15, (R)-(3-methylcyclobutyl)(4-(3-methylmorpholino)-2-(1H-pyrazol-3-yl)-2,6,8,9-tetrahydro-7H-1,2,3,7-tetraazabenzo[cd]azulene-7-yl)methanone] | 10 to 100 nM | 100 to 1000 nM |  |  |
| CC(C(=O)N1CCc2nn(-c3cc[nH]n3)c3nc(N4CCOC[C@H]4C)cc(c23)C1)C(F)(F)F (stereo partly drawn) [Compound 16, 3,3,3-trifluoro-2-methyl-1-(4-((R)-3-methylmorpholinyl)-2-(1H-pyrazol-3-yl)-2,6,8,9-tetrahydro-7H-1,2,3,7-tetraazabenzo[cd]azulen-7-yl)propan-1-one] |  |  | < 10 nM | 100 to 1000 nM |
| C[C@@H]1COCCN1c1cc2c3c(nn(-c4cc[nH]n4)c3n1)CCN(c1ccccc1)C2 [Compound 17, (R)-3-methyl-4-(7-phenyl-2-(1H-pyrazol-3-yl)-6,7,8,9-tetrahydro-2H-1,2,3,7-tetraazabenzo[cd]azulen-4-yl)morpholine] | 10 to 100 nM | > 1000 nM |  |  |
| C[C@@H]1COCCN1c1cc2c3c(nn(-c4cc[nH]n4)c3n1)CCN(C(=O)C1(C(F)(F)F)CC1)C2 [Compound 18, (R)-(4-(3-methylmorpholinyl)-2-(1H-pyrazol-3-yl)-2,6,8,9-tetrahydro-7H-1,2,3,7-tetraazabenzo[cd]azulen-7-yl)(1-(trifluoromethyl)cyclopropyl)methanone] |  |  | < 10 nM | < 100 nM |
| C[C@@H]1COCCN1c1cc2c3c(nn(-c4cc[nH]n4)c3n1)CCN(C(=O)C1CC1(F)F)C2 (stereo partly drawn) [Compound 19, (2,2-difluorocyclopropyl)(4-((R)-3-methylmorpholino)-2-(1H-pyrazol-3-yl)-2,6,8,9-tetrahydro-7H-1,2,3,7-tetraazabenzo[cd]azulene-7-yl)methanone] | < 10 nM | 100 to 1000 nM |  |  |
| C#CC(C)N1CCc2nn(-c3cc[nH]n3)c3nc(N4CCOC[C@H]4C)cc(c23)C1 (stereo partly drawn) [Compound 21, (3R)-4-(7-(but-3-yn-2-yl)-2-(1H-pyrazol-3-yl)-6,7,8,9-tetrahydro-2H-1,2,3,7-tetraazabenzo[cd]azulen-4-yl)-3-methylmorpholine] | 10 to 100 nM | 100 to 1000 nM |  |  |
| C[C@@H]1COCCN1c1cc2c3c(nn(-c4cc[nH]n4)c3n1)CCN(S(C)(=O)=O)C2 [Compound 22, (R)-3-methyl-4-(7-(methylsulfonyl)-2-(1H-pyrazol-3-yl)-6,7,8,9-tetrahydro-2H-1,2,3,7-tetraazabenzo[cd]azulen-4-yl)morpholine] | < 10 nM | < 100 nM |  |  |
| C[C@@H]1COCCN1c1cc2c3c(nn(-c4cc[nH]n4)c3n1)CCN(S(=O)(=O)C1CC1)C2 [Compound 23, (R)-4-(7-(cyclopropylsulfonyl)-2-(1H-pyrazol-3-yl)-6,7,8,9-tetrahydro-2H-1,2,3,7-tetraazabenzo[cd]azulen-4-yl)-3-methylmorpholine] | < 10 nM | 100 to 1000 nM |  |  |
| CC(C)S(=O)(=O)N1CCc2nn(-c3cc[nH]n3)c3nc(N4CCOC[C@H]4C)cc(c23)C1 [Compound 24, (R)-4-(7-(isopropylsulfonyl)-2-(1H-pyrazol-3-yl)-6,7,8,9-tetrahydro-2H-1,2,3,7-tetraazabenzo[cd]azulen-4-yl)-3-methylmorpholine] | < 10 nM | 100 to 1000 nM |  |  |
| C[C@@H]1COCCN1c1cc2c3c(nn(-c4cc[nH]n4)c3n1)CCN(S(=O)(=O)C(F)F)C2 [Compound 27, (R)-4-(7-((difluoromethyl)sulfonyl)-2-(1H-pyrazol-3-yl)-6,7,8,9-tetrahydro-2H-1,2,3,7-tetraazabenzo[cd]azulen-4-yl)-3-methylmorpholine] | < 10 nM | 100 to 1000 nM |  |  |
| C[C@@H]1COCCN1c1cc2c3c(nn(-c4cc[nH]n4)c3n1)CCN(S(C)(=N)=O)C2 (stereo partly drawn) [Compound 28, (3R)-3-methyl-4-(7-(S-methylsulfonylimino)-2-(1H-pyrazol-3-yl)-6,7,8,9-tetrahydro-2H-1,2,3,7-tetraazabenzo[cd]azulen-4-yl)morpholine] | 10 to 100 nM | > 1000 nM |  |  |
| CC1c2cc(N3CCOC[C@H]3C)nc3c2c(nn3-c2cc[nH]n2)CCN1S(=O)(=O)CCO (some centres unmarked) [Compound 34] |  |  | < 10 nM | 100 to 1000 nM |
| CC(=O)N1CCc2nn(-c3cc[nH]n3)c3nc(N4CCOC[C@H]4C)cc(c23)C1C (stereo partly drawn) [Compound 38, 1-(6-methyl-4-((R)-3-methylmorpholinyl)-2-(1H-pyrazol-3-yl)-2,6,8,9-tetrahydro-7H-1,2,3,7-tetraazabenzo[cd]azulen-7-yl)ethan-1-one] |  |  | < 10 nM | 100 to 1000 nM |
| C=CS(=O)(=O)N1CCc2nn(-c3cc[nH]n3)c3nc(N4CCOC[C@H]4C)cc(c23)C1C (stereo partly drawn) [Compound 50, (3R)-3-methyl-4-(6-methyl-2-(1H-pyrazol-3-yl)-7-(vinylsulfonyl)-6,7,8,9-tetrahydro-2H-1,2,3,7-tetraazabenzo[cd]azulen-4-yl)morpholine] | < 10 nM | < 100 nM |  |  |
